{
  "source": "patent US20150174158A1",
  "about": "“[…] NITRIC OXIDE FOR TREATING RESPIRATORY DISEASES” (Advanced Inhalation Therapies (AIT) Ltd., priority 2012, published 2015)",
  "key": {"[1]": {"tested_on": "highly pathogenic Avian Influenza H7N3", "details": "cited from earlier work"}, "methemoglobin (MetHb)": {"tested_on": "methemoglobin (MetHb)", "details": "healthy humans, cited from earlier work"}, "[2]": {"experiment": "Phase I safety study: pulmonary function tests", "type": "in vivo, human", "description": "(§1) After obtaining informed consent, treatment was initiated within 5 days of enrollment. Subjects were housed in a hospital ward and received 160 ppm gNO for 30 minutes every four hours (Q4h), five times a day, for five consecutive days by inhalation. Subjects returned for follow-up evaluations 3, 7 and 21 days after the final gNO administration. Subject safety was determined by monitoring vital signs, methemoglobin levels, lung function, blood chemistry, hematology, prothrombin time, inflammatory cytokine/chemokines levels and endothelial activation. These parameters were compared to baseline and at various time-points during and after gNO administration.\nSubjects underwent full pulmonary function tests (PFT), including lung diffusing capacity (DLCO) by a trained technician utilizing a calibrated pulmonary function system (Jaeger MasterScreen, VIASYS Healthcare, USA) on screening and days 2, 8, 12 and 26. Spirometry test (Microloop by Micro Medical, England) was performed on days 1, 3 and 4. Effect of gNO on lung function and DLCO was determined by changes from baseline, treatment days and follow up days. […]"}, "P. aeruginosa (ATCC)": {"tested_on": "P. aeruginosa (ATCC)", "details": "200 ppm gNO; saline; cited from earlier work"}, "[3]": {"tested_on": "chronic, non-healing wound", "details": "topical 200 ppm gNO, within the first three days; cited from earlier work"}, "[4]": {"details": "continuous delivery of 80 ppm; cited from earlier work"}, "[5]": {"experiment": "Phase I open label safety study of intermittent 160 ppm gNO inhalation: adverse events, vital signs, oxygenation, NO2", "type": "in vivo, human", "text": "10 healthy adult volunteer subjects (5 males, 5 females), aged 20 to 62 years, were enrolled in the study after screening their medical history, a physical examination, pulmonary function tests and blood values. Exclusion criteria included individuals less than 19 years of age, pregnant females and unwilling to practice birth control during the study, diagnosed with pulmonary disease, epistaxis, hemoptysis, methemoglobinemia, organ transplant recipient or receiving antibiotic therapy.\nas §1\nSubjects were administered gNO through a modified disposable mouthpiece to maximize mixing. Inspiration was spontaneously initiated by the subject from a conventional intermittent positive pressure breathing respirator (Mark-7, Carefusion, USA) in fixed flow mode delivering 48 liters per minute (LPM). Flows of gas were verified with a calibrated mass flow meter (TSI, USA). Gaseous nitric oxide (gNO, obtained at INOmax, Ikaria, USA) at a concentration of 800 ppm delivered at a flow of 12 LPM was titrated into a distal delivery port on the mouth piece connected to the respirator during inspiratory phase only (pressure switch). The Mark 7 respirator was supplied by an air/oxygen blender (Bird Sentry, Carefusion, USA) set to deliver 26% oxygen.\nThe levels of gNO, NO2, O2 and methemoglobin were monitored during the administration of gNO. […] Inspiratory NO, NO2 and O2 levels were continuously monitored by sampling from the mouthpiece sample port located about 6 millimeters from the mouth of the subject with an AeroNOx (Pulmonox, AB, Canada) NO, NO2 and O2 electrochemical analyzer. Delivery safety was determined by the number of occasions that NO2 exceeded 5 ppm, gNO exceeding 10% variation and O2 dropping below 20% during gNO administration. […]\nGeneral medical examinations were performed by a pulmonary physician on screening and on days 8, 12 and 26 to obtain oxygenation and vital sign measurements. […] Oxygenation was measured with a pulse oximeter (Rad 57, Masimo Corporation, USA) which was used according to manufacturer's guidelines to measure functional oxygen saturation of arterial hemoglobin (SpO2) and heart rate. These parameters were measured continuously during every gNO administration and for 3.5 hours after the first treatment of the day. Cardiovascular status was determined by monitoring heart rate, blood pressure, respiratory rate and temperature. Values were recorded prior to the start of each gNO administration, following a 5 minute rest. During treatments, vital signs (except temperature) were also performed 15 minutes after the start of the treatment and at the end of gNO administration and recorded. After the first treatment each day, vital signs were recorded at every 30 minutes until the start of the second gNO administration of the day."}, "Klebsiella sp. #1": {"tested_on": "Klebsiella sp. #1", "details": "200 ppm gNO; saline; cited from earlier work"}, "[6]": {"tested_on": "all microorganisms tested", "details": "200 ppm gNO, cited from earlier work"}},
  "note": "Where two headings read alike, the source gives them in different places.",
  "data": [
    {"smiles": "[N]=O", "note": "[gNO, nitric oxide]", "values": [
      {"measurement": "infectivity (plaque formation)", "setting": "[1]", "value": "capable of reducing the infectivity"},
      {"measurement": "MetHb level", "setting": "methemoglobin (MetHb); gNO 128 ppm for 3 hours", "value": "> 5", "unit": "%"},
      {"measurement": "MetHb level", "setting": "methemoglobin (MetHb); gNO 512 ppm for 55 minutes", "value": "> 5", "unit": "%"},
      {"measurement": "pulmonary function tests, abnormalities", "setting": "[2]; during and after gNO administration", "value": "did not reveal any abnormalities"},
      {"measurement": "DLCO, FVC, TLC and RV", "setting": "[2]; vs baseline", "value": "did not change from baseline"},
      {"measurement": "FEV1 and maximum mid-expiratory flow (MMEF)", "setting": "[2]; vs baseline during the course of the study", "value": "did not differ from baseline"},
      {"measurement": "LD100", "setting": "P. aeruginosa (ATCC)", "value": 3, "unit": "h"},
      {"measurement": "Latent Period", "setting": "P. aeruginosa (ATCC)", "value": 1, "unit": "h"},
      {"measurement": "−2.5 Log10", "setting": "P. aeruginosa (ATCC)", "value": 2.1, "unit": "hours"},
      {"measurement": "biofilm presence", "setting": "[3]", "value": "no longer visibly present"},
      {"measurement": "NO2 level", "setting": "[4]", "value": 2.6, "unit": "ppm"},
      {"measurement": "minor adverse events", "setting": "[5]; 160 ppm gNO 30 min, 5 times a day, 5 days, 10 healthy adults", "value": "Three minor adverse events were reported"},
      {"measurement": "significant adverse events", "setting": "[5]; 160 ppm gNO 30 min, 5 times a day, 5 days, 10 healthy adults, 250 administrations", "value": "no significant adverse events were observed"},
      {"measurement": "vital signs", "setting": "[5]; during and after gNO administration, 160 ppm", "value": "remained within normal limits"},
      {"measurement": "lowest observed SpO2", "setting": "[5]; during or after 160 ppm gNO administration", "value": 93, "unit": "%"},
      {"measurement": "mean NO2 level during the treatments", "setting": "[5]; inspired gas at mouthpiece, 160 ppm gNO, 95% confidence level 2.17-2.47", "value": 2.32, "unit": "ppm"},
      {"measurement": "LD100", "setting": "Klebsiella sp. #1", "value": 6, "unit": "h"},
      {"measurement": "Latent Period", "setting": "Klebsiella sp. #1", "value": 3, "unit": "h"},
      {"measurement": "−2.5 Log10", "setting": "Klebsiella sp. #1", "value": 3.5, "unit": "hours"},
      {"measurement": "bactericidal effect", "setting": "[6]; all microorganisms tested", "value": "complete bactericidal effect"},
      {"measurement": "reduction in CFU/mL", "setting": "[6]; every bacteria challenged", "value": "≥ 3", "unit": "login CFU/mL"}
    ]}
  ]
}
